Results: the supplement of paper PMC10307832

What was measured:
Experiment in all cases: relative viability (nuclei count vs DMSO), 5 days (fraction); higher = more cells survive
[1] = test system: EBC-1
Method in brief: (§1)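 Values are medians from duplicate plates. Each reflects relative viability, defined as the nuclei count of treated wells over that of vehicle wells. Lung cancer cell lines in 1536-well plates were pin-tool dosed one day after seeding with one drug alone or with a fixed anchor-drug dose plus five library-drug doses (not always all listed) in √10 steps, then fixed, stained and imaged at 4× after 5 days.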

[2] = test system: NCI-H1703
Method in brief: as §1

[3] = test system: IA-LM
Method in brief: as §1

[4] = test system: NCI-H1623
Method in brief: as §1

[5] = test system: NCI-H2009
Method in brief: as §1

[6] = test system: A-427
Method in brief: as §1

[7] = test system: NCI-H1734
Method in brief: as §1

[8] = test system: NCI-H1299
Method in brief: as §1

[9] = test system: Calu-6
Method in brief: as §1

[10] = test system: A549
Method in brief: as §1

[11] = test system: UMC-11
Method in brief: as §1

[12] = test system: NCI-H1650
Method in brief: as §1

[13] = test system: CAL-12T
Method in brief: as §1

[14] = test system: LK-2
Method in brief: as §1

`COc1nc(C)cnc1NS(=O)(=O)c1cccnc1-c1ccc(-c2nnco2)cc1` [Zibotentan] + COc1cc2c(Oc3ccc(NC(=O)C4(C(=O)Nc5ccc(F)cc5)CC4)cc3F)ccnc2cc1OCCCN1CCOCC1 [Foretinib] (partner 0.25 µM) showed a relative viability ([1]; first compound 0.08 µM) of 0.0991, a relative viability ([1]; first compound 0.253 µM) of 0.0961 and a relative viability ([1]; first compound 0.8 µM) of 0.103. For the same compound, the relative viability ([1]; first compound 2.53 µM) was 0.113, the relative viability ([2]; first compound 0.08 µM) was 0.422 and the relative viability ([2]; first compound 0.253 µM) was 0.347. The relative viability ([2]; first compound 0.8 µM) was 0.395, the relative viability ([2]; first compound 2.53 µM) was 0.314 and the relative viability ([3]; first compound 0.08 µM) was 1.06. The relative viability ([3]; first compound 0.253 µM) was 1.15, the relative viability ([3]; first compound 0.8 µM) was 1.09 and the relative viability ([3]; first compound 2.53 µM) was 1.3. It also gave a relative viability ([4]; first compound 0.08 µM) of 0.84, a relative viability ([4]; first compound 0.253 µM) of 0.765 and a relative viability ([4]; first compound 0.8 µM) of 0.855. It also gave a relative viability ([4]; first compound 2.53 µM) of 0.771, a relative viability ([5]; first compound 0.08 µM) of 1.25 and a relative viability ([5]; first compound 0.253 µM) of 1.24. For the same compound, the relative viability ([5]; first compound 0.8 µM) was 1.28, the relative viability ([5]; first compound 2.53 µM) was 1.35 and the relative viability ([6]; first compound 0.08 µM) was 1.14. For the same compound, the relative viability ([6]; first compound 0.253 µM) was 1.1, the relative viability ([6]; first compound 0.8 µM) was 1.1 and the relative viability ([6]; first compound 2.53 µM) was 1.19. The relative viability ([7]; first compound 0.08 µM) was 0.875, the relative viability ([7]; first compound 0.253 µM) was 0.773 and the relative viability ([7]; first compound 0.8 µM) was 0.883. It also gave a relative viability ([7]; first compound 2.53 µM) of 0.812, a relative viability ([8]; first compound 0.08 µM) of 1.11 and a relative viability ([8]; first compound 0.253 µM) of 1.05. For the same compound, the relative viability ([8]; first compound 0.8 µM) was 1.05, the relative viability ([8]; first compound 2.53 µM) was 1.13 and the relative viability ([9]; first compound 0.08 µM) was 0.811. It also gave a relative viability ([9]; first compound 0.253 µM) of 0.947, a relative viability ([9]; first compound 0.8 µM) of 0.849 and a relative viability ([9]; first compound 2.53 µM) of 0.895. The relative viability ([10]; first compound 0.08 µM) was 1.02, the relative viability ([10]; first compound 0.253 µM) was 0.916 and the relative viability ([10]; first compound 0.8 µM) was 1.1. The relative viability ([10]; first compound 2.53 µM) was 1.1, the relative viability ([11]; first compound 0.08 µM) was 1.05 and the relative viability ([11]; first compound 0.253 µM) was 0.92. For the same compound, the relative viability ([11]; first compound 0.8 µM) was 0.991, the relative viability ([11]; first compound 2.53 µM) was 1.04 and the relative viability ([12]; first compound 0.08 µM) was 1.04. For the same compound, the relative viability ([12]; first compound 0.8 µM) was 1.29, the relative viability ([12]; first compound 2.53 µM) was 1.28 and the relative viability ([13]; first compound 0.08 µM) was 1.21. For the same compound, the relative viability ([13]; first compound 0.253 µM) was 0.923, the relative viability ([13]; first compound 0.8 µM) was 1.13 and the relative viability ([13]; first compound 2.53 µM) was 1.12. The relative viability ([14]; first compound 0.08 µM) was 1.37, the relative viability ([14]; first compound 0.253 µM) was 1.31 and the relative viability ([14]; first compound 0.8 µM) was 0.895. The relative viability ([14]; first compound 2.53 µM) was 1.17.
